Measurements reported in patent US20210069147A1, “PHARMACEUTICAL COMBINATION AND USES THEREOF” (BIONOMICS LIMITED, priority 2015, published 2021).

Tests used:
MC38 murine colon tumor = test: Efficacy in syngeneic MC38 murine colon tumor model; assay type: in vivo, mouse (C57/BL6); conditions: Day 17; C57/BL6 mice with s.c. MC38 tumors; BNC105P 10 mg/kg i.v. Day 1, 8, 15; anti-PD1 (Clone RMP1-14) 3.5 mg/kg i.p. Day 1, 4, 8, 12, 16
Method: The present inventors conducted a study to determine the efficacy of BNC105 in combination with the immunotherapeutic anti-PD1 antibody in the syngeneic MC38 murine colon tumor model. BNC105P was administered at 10 mg/kg i.v., on Day 1, 8 and 15, anti-PD1 antibody (Clone RMP1-14) was administered at 3.5 mg/kg i.p. on Day 1, 4, 8, 12 and 16. C57/BL6 mice were inoculated subcutaneously with MC38 cells. When tumors reached a volume of approximately 100-150 mm3 animals were randomised into groups of 10 mice per group.
1. Saline+PBS control 2. Saline+IgG2a isotypc control antibody 3. BNC105P+IgG2a isotype control antibody 4. Saline+anti-PD1 antibody 5. BNC105P+anti-PD1 antibody
The in-life pan of this study was completed on Day 18 of the treatment period due to tumor size in the control groups reaching the ethical limit. Tumors and blood were collected for FACS analysis and also tumors were collected for histology. FACS analysis and histology is currently under way and is aimed at identifying changes of immune T-cell populations following treatment.

IFNγ = test: Tumoral levels of IFNγ; assay type: in vivo; conditions: 16 mg/kg BNC105 versus saline (FIG. 3)
Method: FIG. 3. Tumoral levels of IFNγ in animals administered with saline or 16 mg/kg BNC105.
(§1) BNC105 primes the immunogenic potential of a tumor with increased tumoral IFNγ content compared to control treated animals (FIG. 3). IFNγ is secreted from CD4+ Th1, CD8+ and Th0 cells and activated NK cells.

[1] = test system: tumor vasculature (Renca); test: Vascular stain perfusion in murine orthotopic model of Renal Cancer (Renca); assay type: in vivo; conditions: perfusion of a vascular stain
From the text: In a murine orthotopic model of Renal Cancer (Renca) the present inventors have shown using perfusion of a vascular stain that tumor blood vessels arc obliterated after BNC105 treatment compared to normal tissue which remains unaffected.

CT26 murine colon tumor = test: Efficacy in syngeneic CT26 murine colon tumor model; assay type: in vivo, mouse (Balb/c); conditions: Day 11; Balb/c mice with s.c. CT26 tumors; BNC105 10 mg/kg Days 1 and 8; anti-CTLA4 (Clone 9D9) 10 mg/kg i.p. Days 2, 5, 9
Method: The present inventors conducted a separate study to determine the efficacy of BNC105 in combination with the immune-oncology therapeutic antibody anti-CTLA4 in the syngeneic CT26 murine colon tumor model. BNC105 (10 mg/kg) was administered on Days 1 and 8, the anti-CTLA4 antibody (Clone 9D9) was administered at 10 mg/kg i.p. on Days 2, 5, and 9. Balb/c mice were inoculated subcutaneously with C1′26 cells. When tumors reached an average volume of approximately 135 mm3 animals were randomised into 5 groups of 10 mice per group.
1. Saline+PBS control 2. Saline+IgG2b isotype control, antibody 3. BNC105P+IgG2b isotype control antibody 4. Saline+anti-CTLA4 antibody 5. BNC105P+anti-CTLA4 antibody
The in-life part of this study was completed on Day 12 of the treatment period due to tumor sizes in the control groups reaching ethical limits. Tumors were collected for both FAGS analysis and for histology. FAGS analysis and histology arc currently in progress and aim to identify changes of immune T-cell populations following treatment.

CD3+/CD8+ cells = test: Tumoral CD3+/CD8+ cells; conditions: in vivo
From the text: as §1

[2] = test system: tumor infiltrating macrophages (CD11b+); test: Number of tumor infiltrating macrophages; assay type: in vivo; conditions: after treatment, monotherapy and combination (FIG. 5)
From the text: FIG. 5. Reduction in the number of tumor infiltrating macrophages (CD11b+) after treatment with BNC105 (monotherapy and combination).
This reduction would dramatically change the immune environment potentially releasing the immune dampening effect of macrophage subsets.

IL-12 subunit p40 = test: Plasma biomarker analysis, Phase II mesothelioma trial (Multi-Analyte Profile); assay type: in vivo, human; conditions: patients, BNC105 16 mg/m2 monotherapy
Method: FIG. 4. Changes in levels of IL-12 p40 and II: 10 following administration with BNC105. Phase II Mesothelioma trial BNC105 (16 mg/m2) number of patients=19. Blood draws were pre-specified and optional. Patients receiving BNC105 alone received blood draws prior to BNC105 administration and 3 hours following administration. Plasma samples were used to determine exploratory analytes using Multi-Analyte Profile (MAP) technology (Myriad RBM). Graph showing % change from baseline. Percent change was calculated as analyse plasma concentration (post-baseline)/baseline*100. Mean±SEM shown on graph.
The balance between pro-inflammatory and anti-inflammatory signals provided by different immune cell populations is crucial for normal physiology and the suppression of cancer development. By altering this homeostasis an opportunity is provided for the immune system to alter the way it responds. Biomarker analysis on patient samples was conducted from a Phase II BNC105 monotherapy mesothelioma trial. […] The immune-modulatory cytokine IL-12 subunit p40, a key member of the IL-12 cytokine family, has emerged as a potent inducer of antitumor immunity. IL-12 subunit p40 is secreted by activated macrophages and serves as an essential inducer of Th1 cells development.

SMILES	tumor growth inhibition (TGI) (MC38 murine colon tumor) [%]	tumoral IFNγ content compared to control treated animals (IFNγ)	normal tissue vasculature after treatment [1]	tumor blood vessels after treatment [1]	tumor growth inhibition (CT26 murine colon tumor) [%]	change in tumoral CD3+/CD8+ cells (CD3+/CD8+ cells)	number of tumor infiltrating macrophages (CD11b+) [2]	plasma IL-12 subunit p40 post administration (IL-12 subunit p40; 3 hours following administration versus baseline)	plasma IL-12 subunit p40 at Day 8 post dosing (IL-12 subunit p40; Day 8)
COc1cc(C(=O)c2c(C)oc3c(O)c(OC)ccc23)cc(OC)c1OC [BNC105, 2-methyl-7-hydroxy-3-(3,4,5-trimethoxybenzoyl)-6-methoxybenzofuran]	40	increased	unaffected	obliterated	27	No change	significant reduction	significantly increases	remains elevated
COc1cc(C(=O)c2c(C)oc3c(OP(=O)([O-])[O-])c(OC)ccc23)cc(OC)c1OC.[Na+].[Na+] [BNC105P, di sodium [6-methoxy-2-methyl-3-(3,4,5-trimethoxybenzoyl)-1-benzofuran-7-yl] phosphate]	40	–	–	–	27	–	–	–	–
